Measurements as given in patent US7759486B2, “2,4,5-Trisubstituted pyrimidine compounds” (GlaxoSmithKline LLC, priority 2000, dated 2010).

| melting point | Compound |
| --- | --- |
| 246 to 248 °C | Cc1cc(F)ccc1-c1nc(NCCNC(=O)c2ccccc2)nc2c1ccc(=O)n2-c1c(F)cccc1F [Example 163, 8-(2,6-Difluorophenyl)-4-(4-fluoro-2-methylphenyl)-2-[N-(2-aminoethyl)-3-benzamido]-8H-pyrido[2,3-d]pyrimidin-7-one] |
| 137 to 139 °C | CCOc1nc(-c2ccc(F)cc2C)c2ccc(=O)n(-c3ccccc3F)c2n1 [Example 156, 2-Ethoxy-4-(4-fluoro-2-methylphenyl)-8-(2-fluorophenyl)-8H-pyrido[2,3-d]pyrimidin-7-one] |
| 218 to 219 °C | Cc1cc(F)ccc1-c1nc(NC2CCCCC2)nc2c1ccc(=O)n2-c1c(F)cccc1F [Example 148, 2-Cyclohexylamino-4-(4-fluoro-2-methylphenyl)-8-(2,6-difluorophenyl)-8H-pyrido[2,3-d]pyrimidin-7-one] |
| 187 to 188 °C | Cc1cc(F)ccc1-c1nc(NCC(F)(F)F)nc2c1ccc(=O)n2-c1ccccc1F [Example 150, 2-(2,2,2-Trifluoroethylamino)-4-(4-fluoro-2-methylphenyl)-8-(2-fluorophenyl)-8H-pyrido[2,3-d]pyrimidin-7-one] |
| 105 to 115 °C (dec.) | Cc1cc(F)ccc1-c1nc(NCCNS(C)(=O)=O)nc2c1ccc(=O)n2-c1c(F)cccc1F [Example 189, N-[2-[[8-(2,6-Difluorophenyl)-4-(4-fluoro-2-methylphenyl)-7,8-d hydro-7-oxopyrido[2,3-d]pyrimidin-2-yl]amino]ethyl]methanesulfonamide] |
| > 280 °C | Cc1cc(F)ccc1-c1nc(O)nc2c1ccc(=O)n2-c1ccccc1F (hydrate or solvate) [Example 144, 2-Hydroxy-4-(4-fluoro-2-methylphenyl)-8-(2-fluorophenyl)-8H-pyrido[2,3-d]pyrimidin-7-one] |
| 214 to 216 °C | CCC(=O)NCCNc1nc(-c2ccc(F)cc2C)c2ccc(=O)n(-c3c(F)cccc3F)c2n1 [Example 165] |
| 148 to 151 °C | Cc1cc(F)ccc1-c1nc(N[C@H]2CC[C@H](O)CC2)nc2c1ccc(=O)n2-c1ccccc1F [Example 151, trans-2-(4-Hydroxycyclohexylamino)-4-(4-fluoro-2-methylphenyl)-8-(2-fluorophenyl)-8H-pyrido[2,3-d]pyrimidin-7-one] |
| 96 to 99 °C | Cc1cc(F)ccc1-c1nc(OCCN)nc2c1ccc(=O)n2-c1c(F)cccc1F [Example 131, 8-(2,6-Difluorophenyl)-4-(4-fluoro-2-methylphenyl)-2-(2-aminoethoxy)-8H-pyrido[2,3-d]pyrimidin-7-one] |
| 181 to 182 °C | Cc1cc(F)ccc1-c1nc(NC2CCCCC2)nc2c1ccc(=O)n2-c1ccccc1F [Example 145, 2-Cyclohexylamino-4-(4-fluoro-2-methylphenyl)-8-(2-fluorophenyl)-5H-pyrido[2,3-d]pyrimidin-7-one] |
| 131 to 144 °C | Cc1cc(F)ccc1-c1nc(NCCNC(=O)Nc2cccc(F)c2)nc2c1ccc(=O)n2-c1c(F)cccc1F [Example 161, 1-[2-[8-(2,6-Difluorophenyl)-4-(4-fluoro-2-methylphenyl)-7-oxo-7,8-dihydro-pyrido[2,3-d]pyrimidin-2-ylamino]ethyl]-3-[3-fluorophenyl]urea] |
| 89 to 92 °C | Cc1cc(F)ccc1-c1nc(OCCN(C)S(C)(=O)=O)nc2c1ccc(=O)n2-c1c(F)cccc1F [Example 135, 8-(2,6-Difluorophenyl)-4-(4-fluoro-2-methylphenyl)-2-(2-N-methanesulfonyl-N-methylaminoethoxy)-8H-pyrido[2,3-d]pyrimidin-7-one] |

| Compound | melting point |
| --- | --- |
| Cc1cc(F)ccc1-c1nc(OCCNC(=O)OC(C)(C)C)nc2c1ccc(=O)n2-c1c(F)cccc1F [Example 130, 8-(2,6-Difluorophenyl)-4-(4-fluoro-2-methylphenyl)-2-[2-(tert-butoxycarbonylamino)ethoxy]-8H-pyrido[2,3-d]pyrimidin-7-one] | 103 to 105 °C |
